Laboratory results taken from patent publication US20120003668A1, “HIGH RESOLUTION COMPLEX STRUCTURE AND ALLOSTERIC EFFECTS OF LOW MOLECULAR WEIGHT ACTIVATORS ON THE PROTEIN KINASE PDK1” (UNIVERSITAET DES SAARLANDES, priority 2008, published 2012).
“Also recorded” adds a separate entry of the source. Non-standard residues stand in square brackets, D forms with d. Residues, ends and D or L forms follow the SMILES beside them. *: point of attachment. Biotin = O=C1N[C@H]2[C@H](CS[C@H]2CCCCC(=O)*)N1; pT = C[C@@H](OP(=O)(O)O)[C@H](N)C(=O)O; pS = N[C@@H](COP(=O)(O)O)C(=O)O

B1: PDK1 CD (50-359) wt (enzyme)
chain: GPMDGTAAEPRPGAGSLQHAQPPPQPRKKRPEDFKFGKILGEGSFSTVVLARELATSREYAIKILEKRHIIKENKVPYVTRERDVMSRLDHPFFVKLYFTFQDDEKLYFGLSYAKNGELLKYIRKIGSFDETCTRFYTAEIVSALEYLHGKGIIHRDLKPENILLNEDMHIQITDFGTAKVLSPESKQARANSFVGTAQYVSPELLTEKSACKSSDLWALGCIIYQLVAGLPPFRAGNEYLIFQKIIKLEYDFPEKFFPKARDLVEKLLVLDATKRLGCEEMEGYGPLKAHPFFESVTWENLHQQTPPKLTA
notes: also called PDK1 50-359; PDK1 CD wt

How the values were obtained:
PDK1 catalytic domain = target: T1, PDK1 catalytic domain (Homo sapiens, UniProt O15530); test: TNP-ATP fluorescence probing of the ATP binding site conformation; type: biochemical
T1 construct: The catalytic domain (CD) of PDK1 50-359 and its mutants
T1 sequence (O15530 50-359): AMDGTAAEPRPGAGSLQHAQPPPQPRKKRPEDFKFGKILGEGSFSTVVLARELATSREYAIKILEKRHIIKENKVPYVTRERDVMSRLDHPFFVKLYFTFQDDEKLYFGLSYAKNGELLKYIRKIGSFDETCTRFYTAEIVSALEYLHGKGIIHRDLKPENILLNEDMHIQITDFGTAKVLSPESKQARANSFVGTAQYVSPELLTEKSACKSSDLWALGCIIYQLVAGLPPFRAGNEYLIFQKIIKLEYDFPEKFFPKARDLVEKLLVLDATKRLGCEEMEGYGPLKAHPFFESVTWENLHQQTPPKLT
Source text: Probing the conformation of the ATP binding site in PDK1: The activation of PDK1 by HM-polypeptides and small compounds is due to a change in the conformation of the enzyme. We probed the conformation of the ATP binding site in PDK1 by scanning the steady-state fluorescence of TNP-ATP/PDK1, in the presence or absence of P-HM-polypeptides, PIFtide, or small molecular weight compounds. Data were obtained in a Varian Cary Eclipse spectrofluorometer (excitation λ=479 nm; emission scanning, λ=500-600 nm; excitation slit=10 nm; emission slit=10 nm) at a rate of 200 nm/min, with 150 datapoints/100 nm scanning and 0.3 s averaging time. The incubation was performed at 20° C. in a buffer containing 50 mM Tris pH 7.5, 0.1 mM EDTA, 187 mM NaCl, 40 μM TNP-ATP, 15 μM PDK1 catalytic domain, 1 mM DTT and 1% DMSO. In the absence of PDK1, TNP-ATP produced approximately 1.5 arbitrary units (a.u.) of fluorescence, and the inclusion of PDK1 increased its fluorescence intensity to approximately 3.3 a.u. […] In preliminary tests, inclusion of 2.5 mM MgCl2 in the assay mix produced similar results. Data for each condition are the average of 3 scans.

[1] = target: T2, His-PDK1 50-556 / biotin-PIFtide interaction (Homo sapiens, UniProt O15530); test: alpha-screen displacement of the His-PDK1 biotin-PIFtide interaction; type: binding
T2 sequence (O15530 50-556): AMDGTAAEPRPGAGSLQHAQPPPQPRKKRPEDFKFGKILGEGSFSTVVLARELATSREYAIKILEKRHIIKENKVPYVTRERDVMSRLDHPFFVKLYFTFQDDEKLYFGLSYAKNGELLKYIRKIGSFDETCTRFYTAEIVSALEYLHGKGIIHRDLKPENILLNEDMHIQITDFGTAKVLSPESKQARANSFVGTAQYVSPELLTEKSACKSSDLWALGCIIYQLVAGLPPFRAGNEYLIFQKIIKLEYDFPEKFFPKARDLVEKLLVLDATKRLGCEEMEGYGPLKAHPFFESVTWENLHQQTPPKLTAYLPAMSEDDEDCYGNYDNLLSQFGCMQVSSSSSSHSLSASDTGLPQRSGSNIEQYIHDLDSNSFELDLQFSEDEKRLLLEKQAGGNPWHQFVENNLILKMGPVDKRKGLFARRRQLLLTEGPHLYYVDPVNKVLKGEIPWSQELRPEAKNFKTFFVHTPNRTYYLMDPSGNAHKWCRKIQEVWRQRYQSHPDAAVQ
Procedure: To study if low molecular weight compounds displaced the interaction, the compounds were incubated with the mix and the displacement of the His-PDK1 biotin-PIFtide interaction measured as a decrease in light emission.

[2] = target: T3, PDK1 50-359 [Y288G;Q292A] (Homo sapiens, UniProt O15530, Q292A/Y288G); test: Amide 1H/2H exchange and mass spectrometry
T3 sequence (O15530 with tags, fused parts or gaps Y288G/Q292A): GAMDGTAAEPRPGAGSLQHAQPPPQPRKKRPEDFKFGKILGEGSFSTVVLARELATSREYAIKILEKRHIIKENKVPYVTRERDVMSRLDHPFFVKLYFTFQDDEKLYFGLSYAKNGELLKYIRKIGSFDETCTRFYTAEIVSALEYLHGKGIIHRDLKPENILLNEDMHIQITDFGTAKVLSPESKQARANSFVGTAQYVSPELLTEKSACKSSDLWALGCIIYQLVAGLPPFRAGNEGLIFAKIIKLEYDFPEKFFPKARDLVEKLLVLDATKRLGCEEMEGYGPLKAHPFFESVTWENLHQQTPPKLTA
Procedure: For local exchange analysis, the labeled proteins were digested with pepsin and the resulting polypeptides analyzed by tandem mass-spectrometry (LC-MS/MS) for their incorporation of deuterium atoms. The graphics represent the number of deuterium atoms incorporated into each polypeptide upon the stated incubation time in deuterated water. […] Over time, amide hydrogen atoms exchanged for deuteriums and the molecular weight of the protein increased. We repeated the ^1H/^2H exchange experiments at four different incubation times: 1, 5, 15 and 45 minutes. […] In the presence of peptide or small compounds, protein and ligand solution were pre-incubated on ice for 50 min before the mixture was diluted into labeling buffer. After the exchange reaction, samples were loaded on a pepsin column for one minute for digestion into peptides and samples quenched at each time point. They were then subjected to liquid chromatography for separation and analyzed by tandem mass-spectrometry (LC-MS/MS) for their incorporation of deuterium atoms. The entire plumbing system was immersed in an ice bath. 61 polypeptides were identified with overlapping regions, covering 80% of PDK1 sequence. As it is not possible to predict the cleavage sites of pepsin in the PDK1 sequence, it was necessary to identify the peptides generated by pepsin digestion for local-exchange analysis.

PDK1 CD wt = target: T4, PDK1 CD wt (Homo sapiens, UniProt O15530); test: Surface plasmon resonance (BiaCore) on biotin-P-HM-S6K chip; type: binding; conditions: estimated from response units at equilibrium; read-out: Kd of direct binding of PDK1 CD wt to immobilized peptide
T4 construct: PDK1 CD (50-359), wt (0.35 μM), PDK1 [Phe224Trp] or PDK1 [Thr226Trp] were injected onto the system; GST (N); made in house; host or cells: insect cells
T4 sequence (O15530 50-359): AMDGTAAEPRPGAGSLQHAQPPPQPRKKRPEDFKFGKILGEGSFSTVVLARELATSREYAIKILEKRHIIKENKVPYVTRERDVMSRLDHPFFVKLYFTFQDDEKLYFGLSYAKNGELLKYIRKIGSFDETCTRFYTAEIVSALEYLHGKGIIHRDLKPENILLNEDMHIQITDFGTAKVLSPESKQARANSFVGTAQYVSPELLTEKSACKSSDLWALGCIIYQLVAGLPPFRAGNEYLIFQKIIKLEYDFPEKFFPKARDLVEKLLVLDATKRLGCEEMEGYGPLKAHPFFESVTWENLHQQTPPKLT
Procedure: Surface Plasmon resonance (BiaCore) and alpha-screen interaction and displacement assays: Binding of GST-PDK1 to a P-HM-polypeptide derived from S6K1 shown in FIG. 6 was analysed by surface plasmon resonance on a BiaCore 3000 system using a streptavidin-coated Sensor chip (SA) and biotin-P-HM-polypeptide, as previously described (Biondi, R. M. et al., Embo. J. 20:4380-4390 (2001). The interaction of His-PDK1 with biotin-PIFtide and the displacement by compounds shown in FIG. 3 was performed using the alpha-screen Ni-Chelate kit (Perkin Elmer) on an Envision 2104 multilabel system (Perkin Elmer).
BiaCore analysis was performed as described previously (Biondi, R. M. et al., Embo. J. 19:979-988 (2000)). […] Since both mutants were performed on the same construct of PDK1, their mass should be very similar and therefore should also produce 600RU when all biotin-(P)HM-S6K polypeptides on the same chip are bound to the mutant PDK1 proteins. Unfortunately, when mutant PDK1 Phe224Trp and PDK1 Thr226Trp were analysed, the injection of the mutants at concentrations higher than 1.3 μM prompted unspecific effects, therefore making difficult the evaluation. […]

[3] = target: biotin-P-HM-polypeptide derived from S6K1; test: SPR (BiaCore 3000), biotin-P-HM-S6K on streptavidin chip
Chain of biotin-P-HM-polypeptide derived from S6K1 (peptide, as listed by the source limits assumed): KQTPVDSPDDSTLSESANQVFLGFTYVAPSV

[4] = target: biotin-P-HM-polypeptide derived from S6K1; test: SPR (BiaCore), immobilised biotin-P-HM-S6K
[5] = target: biotin-P-HM-polypeptide derived from S6K1; test: SPR (BiaCore 3000), biotin-P-HM-S6K on streptavidin chip, equilibrium responses
biotin-PIFtide = target: T5, biotin-PIFtide (biotin (position not given)); test: SPR (BiaCore), immobilised biotin-PIFtide
T5 construct: Biotinylated PIFtide
T5 peptide: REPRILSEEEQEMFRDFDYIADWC

PIFtide = target: T6, PIFtide
T6 chain: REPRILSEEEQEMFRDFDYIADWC

[6] = target: T7, PDK1 CD (50-359) [Phe224Trp] (human, UniProt O15530 50-359); test: SPR competition (BiaCore): PDK1 [Phe224Trp] pre-incubated with PIFtide, then injected over immobilised biotin-P-HM-S6K; PIFtide displaces PDK1 from biotin-P-HM-S6K
T7 construct: also called PDK1[Phe224Trp]; PDK1 Phe224Trp
T7 sequence: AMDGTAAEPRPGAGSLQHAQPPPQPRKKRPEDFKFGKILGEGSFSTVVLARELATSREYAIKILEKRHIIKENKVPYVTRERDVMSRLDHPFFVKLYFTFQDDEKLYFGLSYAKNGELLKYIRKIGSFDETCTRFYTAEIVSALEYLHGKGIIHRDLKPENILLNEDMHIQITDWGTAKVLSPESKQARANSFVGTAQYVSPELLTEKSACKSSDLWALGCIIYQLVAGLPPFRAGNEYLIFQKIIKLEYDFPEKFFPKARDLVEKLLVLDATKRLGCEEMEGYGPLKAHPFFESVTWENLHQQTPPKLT

[7] = target: T8, PDK1 CD (50-359) [Thr226Trp] (human, UniProt O15530 50-359); test: SPR competition (BiaCore): PDK1 [Thr226Trp] pre-incubated with PIFtide, then injected over immobilised biotin-P-HM-S6K; PIFtide displaces PDK1 from biotin-P-HM-S6K
T8 construct: also called PDK1[Thr226Trp]; PDK1 Thr226Trp
T8 sequence: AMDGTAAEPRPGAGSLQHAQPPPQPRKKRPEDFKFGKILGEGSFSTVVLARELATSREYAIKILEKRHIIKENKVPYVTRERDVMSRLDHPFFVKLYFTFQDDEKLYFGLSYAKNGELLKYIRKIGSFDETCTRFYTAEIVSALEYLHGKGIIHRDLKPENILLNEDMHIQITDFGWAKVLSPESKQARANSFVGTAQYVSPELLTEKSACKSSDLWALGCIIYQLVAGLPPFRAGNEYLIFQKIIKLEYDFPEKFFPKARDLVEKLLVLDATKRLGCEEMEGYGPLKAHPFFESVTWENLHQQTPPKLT

PDK1 CD (50-359) wt = target: B1; test: SPR competition (BiaCore): PDK1 CD wt pre-incubated with PIFtide, then injected over immobilised biotin-P-HM-S6K; PIFtide displaces PDK1 from biotin-P-HM-S6K

`O=C(O)/C=C(/CCc1ccc(Br)cc1F)c1ccccc1` [PS08] was tested, and the “effect on TNP-ATP fluorescence intensity in the presence of PDK1” value (PDK1 catalytic domain; 40 μM TNP-ATP, 15 μM PDK1 catalytic domain) was “concentration dependent decrease; also recorded: concentration-dependent decrease”, the “maximum fluorescence intensity of TNP-ATP/PDK1” value (PDK1 catalytic domain; 167 μM compound, % of maximal TNP-ATP fluorescence with 15 μM PDK1 CD) was 60% and the “displacement of the binding of PIFtide to PDK1” value [1] was “could be displaced”. For the same molecule, the “decreased 2H incorporation, peptide 108-121” value [2] was 1 ^2H, the “2H less incorporated, peptide 108-134” value ([2]; first time point) was 4 ^2H and the “2H less incorporated, peptide 218-247” value ([2]; first time point) was 1.5 ^2H. For the same molecule, the “2H less incorporated, peptide 108-134” value ([2]; following time points) was 2 ^2H and the “2H less incorporated, peptide 146-155” value ([2]; time points 15 and 45) was 1 ^2H.

For `CC(C)C[C@H](NC(=O)[C@H](Cc1ccccc1)NC(=O)[C@@H](NC(=O)[C@H](CCC(N)=O)NC(=O)[C@H](CC(N)=O)NC(=O)[C@H](C)NC(=O)[C@H](CO)NC(=O)[C@H](CCC(=O)O)NC(=O)[C@H](CO)NC(=O)[C@H](CC(C)C)NC(=O)[C@@H](NC(=O)[C@H](CO)NC(=O)[C@H](CC(=O)O)NC(=O)[C@H](CC(=O)O)NC(=O)[C@@H]1CCCN1C(=O)[C@H](COP(=O)(O)O)NC(=O)[C@H](CC(=O)O)NC(=O)[C@@H](NC(=O)[C@@H]1CCCN1C(=O)[C@@H](NC(=O)[C@H](CCC(N)=O)NC(=O)[C@H](CCCCN)NC(=O)CCCC[C@@H]1SC[C@@H]2NC(=O)N[C@@H]21)[C@@H](C)O)C(C)C)[C@@H](C)O)C(C)C)C(=O)NCC(=O)N[C@@H](Cc1ccccc1)C(=O)N[C@H](C(=O)N[C@@H](Cc1ccc(O)cc1)C(=O)N[C@H](C(=O)N[C@@H](C)C(=O)N1CCC[C@H]1C(=O)N[C@@H](CO)C(=O)N[C@H](C(=O)O)C(C)C)C(C)C)[C@@H](C)OP(=O)(O)O` [biotin-P-HM-S6K] (Biotin-KQTPVD[pS]PDDSTLSESANQVFLGF[pT]YVAPSV-OH; N-terminus and C-terminus assumed), the Kd (PDK1 CD wt) was 500 nM.

Work on B1 yielded a response units at maximum binding (PDK1 injected at 5.4 µM) [3] of 600 RU, a percent of maximal binding of the wild type protein [4] of 50% and a Kd [5] of 500 nM. For the same molecule, the “percent of maximal binding of the wild type protein” value (biotin-PIFtide) was roughly 50%, the “PDK1 activity, T308tide as substrate” value (PIFtide) was “the wild type protein and PDK1[Phe224Trp] were activated by PIFtide” and the “stated: activates; PDK1 activity (%) with T308tide as substrate” value (PIFtide) was “The bar without PIFtide is at 100 %. The two hatched PIFtide bars (labelled 2.5 and 40 µM) are both between 350 and 400 %, with little difference between them”.

REPRILSEEEQEMFRDFDYIADWC (also called HM-polypeptide PIFtide) [PIFtide]: binds [6]; binds [7]; binds (PDK1 CD (50-359) wt).
